# US4816472A, “Derivatives of 19,20-Bis-nor-prostanoic acid with antiulcer and anorectic activity, process for their preparation and pharmaceutical compositions thereof” (Istituto Biochemico Italiano Giovanni Lorenzini S.p.A., priority 1985, dated 1989)
# Counter-ions that a name gives are not always drawn.
# Columns and labels:
# peptic ulcer = settings: previous finding; cited from earlier work
# [1] = tested on: ethanol induced ulcers in the rat; experiment: Ethanol induced ulcers in the rat; format: in vivo
# Method: (§1) The anitulcer activity of these derivatives was evaluated on ulcers induced by the administration of ethanol, hydrochloric acid and sodium hydroxide in the rat, also on gastric ulcers induced by aspirin in the rat, and on their influence on gastric secretions in the rat.
# (1) Ethanol induced ulcers in the rat:
# The method used is that described by A. Robert et al, in Gastroenterology 77,433 (1979), the disclosure of which is incorporated herein by reference.
# [2] = tested on: HCl induced ulcers in the rat; experiment: Hydrochloric acid induced ulcers in the rat; format: in vivo
# Method: as §1
# (2) Hydrochloric acid induced ulcers in the rat:
# The method used for this test is that described by A. Robert et al, in Gastroenterology, 77,433, (1979), the disclosure of which is incorporated herein by reference.
# [3] = tested on: NaOH induced ulcers in the rat; experiment: Sodium hydroxide induced ulcers in the rat; format: in vivo
# Method: as §1
# (3) Sodium hydroxide induced ulcers in the rat:
# Also this test is performed in accordance with the method described by A. Robert et al, in Gastroenterology, 77,433 (1979), the disclosure of which is incorporated herein by reference.
compound,measurement,setting,value
"CCCCCCC1CCC(O)C1CCCCCCC(=O)O (stereo not drawn) [Rosaprostol, 9-hydroxy-91,20-bis-nor-prostanoic acid sodium salt]",antiulcer properties of the natural prostaglandins / other prostaglandin properties,peptic ulcer,"maintaining the antiulcer properties of the natural prostaglandins, completely loses the others"
CCCCCCC1CCC(N)C1CCCCCCC(=O)O (stereo not drawn) [drawing 8],Percent inhibition of ethanol induced ulcers in the rat,[1]; 2.5 mg/kg,40%
same,Percent inhibition of ethanol induced ulcers in the rat,[1]; 5 mg/kg,50%
same,Percent inhibition of ethanol induced ulcers in the rat,[1]; 10 mg/kg,70%
same,Percent inhibition of ethanol induced ulcers in the rat,[1]; 25 mg/kg,67%
same,Percent inhibition of ethanol induced ulcers in the rat,[1]; 50 mg/kg,88%
CCCCCCC1CCC(NC)C1CCCCCCC(=O)O (stereo not drawn) [drawing 9],Percent inhibition of ethanol induced ulcers in the rat,[1]; 5 mg/kg,44%
same,Percent inhibition of ethanol induced ulcers in the rat,[1]; 10 mg/kg,67%
same,Percent inhibition of ethanol induced ulcers in the rat,[1]; 25 mg/kg,86%
same,Percent inhibition of ethanol induced ulcers in the rat,[1]; 50 mg/kg,91%
same,Percent inhibition of ethanol induced ulcers in the rat,[1]; 100 mg/kg,91%
CCCCCCC1CCC(N(C)C)C1CCCCCCC(=O)O (stereo not drawn) [drawing 10],Percent inhibition of ethanol induced ulcers in the rat,[1]; 2.5 mg/kg,24%
same,Percent inhibition of ethanol induced ulcers in the rat,[1]; 5 mg/kg,43%
same,Percent inhibition of ethanol induced ulcers in the rat,[1]; 10 mg/kg,62%
same,Percent inhibition of ethanol induced ulcers in the rat,[1]; 50 mg/kg,97%
same,Percent inhibition of ethanol induced ulcers in the rat,[1]; 100 mg/kg,91%
CCCCCCC1CCC(NC(C)C)C1CCCCCCC(=O)O (stereo not drawn) [drawing 11],Percent inhibition of ethanol induced ulcers in the rat,[1]; 10 mg/kg,9%
same,Percent inhibition of ethanol induced ulcers in the rat,[1]; 25 mg/kg,34%
same,Percent inhibition of ethanol induced ulcers in the rat,[1]; 50 mg/kg,65%
CCCCCCC1CCC(NC(C)=O)C1CCCCCCC(=O)O (stereo not drawn) [drawing 12],Percent inhibition of ethanol induced ulcers in the rat,[1]; 10 mg/kg,25%
same,Percent inhibition of ethanol induced ulcers in the rat,[1]; 100 mg/kg,78%
CCCCCCC1CCC(O)C1CCCCCCC(=O)O (stereo not drawn) [drawing 13],Percent inhibition of ethanol induced ulcers in the rat,[1]; 50 mg/kg,9%
same,Percent inhibition of ethanol induced ulcers in the rat,[1]; 100 mg/kg,37%
CCCCCCC1CCC(N)C1CCCCCCC(=O)O (stereo not drawn) [drawing 14],Percent inhibition of HCl induced ulcers in the rat,[2]; 50 mg/kg,68%
same,Percent inhibition of HCl induced ulcers in the rat,[2]; 100 mg/kg,89%
same,Percent inhibition of HCl induced ulcers in the rat,[2]; 200 mg/kg,91%
CCCCCCC1CCC(NC)C1CCCCCCC(=O)O (stereo not drawn) [drawing 15],Percent inhibition of HCl induced ulcers in the rat,[2]; 25 mg/kg,40%
same,Percent inhibition of HCl induced ulcers in the rat,[2]; 50 mg/kg,49%
same,Percent inhibition of HCl induced ulcers in the rat,[2]; 100 mg/kg,66%
CCCCCCC1CCC(N(C)C)C1CCCCCCC(=O)O (stereo not drawn) [drawing 16],Percent inhibition of HCl induced ulcers in the rat,[2]; 25 mg/kg,23%
same,Percent inhibition of HCl induced ulcers in the rat,[2]; 50 mg/kg,55%
same,Percent inhibition of HCl induced ulcers in the rat,[2]; 100 mg/kg,63%
CCCCCCC1CCC(NC(C)C)C1CCCCCCC(=O)O (stereo not drawn) [drawing 17],Percent inhibition of HCl induced ulcers in the rat,[2]; 25 mg/kg,0%
same,Percent inhibition of HCl induced ulcers in the rat,[2]; 50 mg/kg,46%
same,Percent inhibition of HCl induced ulcers in the rat,[2]; 100 mg/kg,54%
CCCCCCC1CCC(NC(C)=O)C1CCCCCCC(=O)O (stereo not drawn) [drawing 18],Percent inhibition of HCl induced ulcers in the rat,[2]; 25 mg/kg,15%
same,Percent inhibition of HCl induced ulcers in the rat,[2]; 50 mg/kg,66%
CCCCCCC1CCC(O)C1CCCCCCC(=O)O (stereo not drawn) [drawing 19],Percent inhibition of HCl induced ulcers in the rat,[2]; 25 mg/kg,15%
same,Percent inhibition of HCl induced ulcers in the rat,[2]; 100 mg/kg,45%
same,Percent inhibition of HCl induced ulcers in the rat,[2]; 200 mg/kg,63%
CCCCCCC1CCC(N)C1CCCCCCC(=O)O (stereo not drawn) [drawing 20],Percent inhibition of NaOH induced ulcers in the rat,[3]; 5 mg/kg,37%
same,Percent inhibition of NaOH induced ulcers in the rat,[3]; 10 mg/kg,54%
same,Percent inhibition of NaOH induced ulcers in the rat,[3]; 25 mg/kg,80%
CCCCCCC1CCC(NC)C1CCCCCCC(=O)O (stereo not drawn) [drawing 21],Percent inhibition of NaOH induced ulcers in the rat,[3]; 12.5 mg/kg,81%
same,Percent inhibition of NaOH induced ulcers in the rat,[3]; 25 mg/kg,87%
CCCCCCC1CCC(N(C)C)C1CCCCCCC(=O)O (stereo not drawn) [drawing 22],Percent inhibition of NaOH induced ulcers in the rat,[3]; 12.5 mg/kg,52%
same,Percent inhibition of NaOH induced ulcers in the rat,[3]; 25 mg/kg,63%
same,Percent inhibition of NaOH induced ulcers in the rat,[3]; 50 mg/kg,74%
CCCCCCC1CCC(NC(C)C)C1CCCCCCC(=O)O (stereo not drawn) [drawing 23],Percent inhibition of NaOH induced ulcers in the rat,[3]; 12.5 mg/kg,13%
same,Percent inhibition of NaOH induced ulcers in the rat,[3]; 25 mg/kg,46%
same,Percent inhibition of NaOH induced ulcers in the rat,[3]; 50 mg/kg,54%
CCCCCCC1CCC(NC(C)=O)C1CCCCCCC(=O)O (stereo not drawn) [drawing 24],Percent inhibition of NaOH induced ulcers in the rat,[3]; 12.5 mg/kg,7%
same,Percent inhibition of NaOH induced ulcers in the rat,[3]; 25 mg/kg,19%
same,Percent inhibition of NaOH induced ulcers in the rat,[3]; 50 mg/kg,59%
